For 26 compounds, IC50 and EC50 results are on record in patent publication US12410160B2 (Gilead Sciences, Inc., priority 2021, dated 2025).

One experiment deals with human KHK-C (Homo sapiens (Human), UniProt P50053). Description: KHK Biochemical Assay (IC50), ADP-Glo, KHK-C. The settings on record: average of at least two separate assays. In short, it runs like this: (§1)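 His-tagged enzyme expressed in BL21 (DE3), Ni-NTA purified. Compounds, serially diluted 1:3 in DMSO, pre-incubated 30 min with enzyme in 50 mM Hepes pH 7.4, 140 mM KCl, 5 mM MgCl2, 0.01% Triton-X, then ATP and fructose added; 4 h at room temperature. ADP formation read by ADP-Glo luminescence.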
human KHK-C, sequence (P50053 whole entry): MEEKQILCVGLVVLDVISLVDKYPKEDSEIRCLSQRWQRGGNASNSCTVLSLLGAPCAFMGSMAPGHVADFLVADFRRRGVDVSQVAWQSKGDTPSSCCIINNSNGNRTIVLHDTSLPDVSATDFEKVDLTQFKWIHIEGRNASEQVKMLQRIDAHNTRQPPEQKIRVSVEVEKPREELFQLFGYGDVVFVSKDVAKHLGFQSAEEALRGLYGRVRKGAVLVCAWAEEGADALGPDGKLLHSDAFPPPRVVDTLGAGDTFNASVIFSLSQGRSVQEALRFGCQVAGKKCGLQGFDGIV

A further experiment concerns the target human KHK-A (Homo sapiens (Human), UniProt P50053). Description: KHK Biochemical Assay (IC50), ADP-Glo, KHK-A. The settings on record: average of at least two separate assays. The method in brief: as §1
A general note: In ADP-Glo the light output rises with the ADP produced.

Experiment [1] deals with KHK-C expressed in NRK-52E cells (Homo sapiens (Human), UniProt P50053). The experiment can be described thus: KHK-C Cell-based Assay (EC50), NRK CTG, fructose-mediated ATP-depletion.
KHK-C expressed in NRK-52E cells, sequence (P50053 whole entry): as above

Like-named read-outs stand apart in the source and are kept apart here. Some results are limits rather than exact numbers.

human KHK-A, sequence (P50053 other isoform, or with tags, fused parts or gaps): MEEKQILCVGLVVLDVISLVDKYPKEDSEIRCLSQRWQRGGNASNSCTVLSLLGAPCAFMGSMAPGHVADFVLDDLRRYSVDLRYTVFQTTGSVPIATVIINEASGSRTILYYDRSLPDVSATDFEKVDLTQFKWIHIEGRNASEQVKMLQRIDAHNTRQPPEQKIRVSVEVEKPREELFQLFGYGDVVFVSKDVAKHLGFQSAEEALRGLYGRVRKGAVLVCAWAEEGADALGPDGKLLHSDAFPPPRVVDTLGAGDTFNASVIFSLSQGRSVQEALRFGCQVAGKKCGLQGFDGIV

As a reminder, the IC50 is the concentration that gives 50% inhibition. A higher IC50 goes with lower potency. The term EC50 denotes the concentration needed to bring the measured effect to its halfway point. With `C[C@H]1CCN1c1nc2c(c(-c3ccc(C(N)=O)c(NS(C)(=O)=O)c3)n1)CCC2` [Example 320, (S)-4-(2-(2-methylazetidin-1-yl)-6,7-dihydro-5H-cyclopenta[d]pyrimidin-4-yl)-2-(methylsulfonamido)benzamide], the half-inhibitory concentration (IC50) against human KHK-C (ADP-Glo) came to 244 nM; against human KHK-A (ADP-Glo), 210 nM. Also, in experiment [1], a half-maximal response (EC50) required 638 nM.

As to `C[C@H]1CCN1c1nc2c(c(-c3cccc([C@H]4C[C@@H]4C#N)c3)n1)CCC2` (stereo in doubt) [Example 454, trans-2-[3-[2-[(2S)-2-methylazetidin-1-yl]-6,7-dihydro-5H-cyclopenta[d]pyrimidin-4-yl]phenyl]cyclopropanecarbonitrile], the IC50 at human KHK-C is 489 nM; against human KHK-A, 459 nM. For the same compound, in experiment [1], the EC50 worked out at 546 nM.

Take `C[C@H]1CCN1c1nc2c(c(-c3ccc(OC(F)(F)F)c(S(N)(=O)=O)c3)n1)CCC2` [Example 126, (S)-5-(2-(2-methylazetidin-1-yl)-6,7-dihydro-5H-cyclopenta[d]pyrimidin-4-yl)-2-(trifluoromethoxy)benzenesulfonamide]: the results for the IC50 at human KHK-C (ADP-Glo) and at human KHK-A (ADP-Glo) were 400 nM and 406 nM, respectively. In experiment [1], this compound returned an EC50 of 253 nM.

As to `C[C@H]1CCN1c1nc2c(c(-c3ccc4c(=O)[nH][nH]c(=O)c4c3)n1)CCC2` [Example 429, 6-[2-[(2S)-2-methylazetidin-1-yl]-6,7-dihydro-5H-cyclopenta[d]pyrimidin-4-yl]-2,3-dihydrophthalazine-1,4-dione], the IC50 on human KHK-C is 41.6 nM; on human KHK-A, 48.6 nM. Also, in experiment [1], it took 1730 nM to reach a half-maximal effect (EC50).

Consider `C[C@H]1CCN1c1nc2c(c(-c3ccc4ccc(C(=O)O)cc4c3)n1)CCC2` [Example 232, 7-[2-[(2S)-2-methylazetidin-1-yl]-6,7-dihydro-5H-cyclopenta[d]pyrimidin-4-yl]naphthalene-2-carboxylic acid], for which the IC50 against human KHK-C (ADP-Glo) was found to be 44.8 nM; against human KHK-A (ADP-Glo) it was 46.1 nM. This compound also came in with an EC50 in experiment [1] of 1630 nM.

With `C[C@H]1[C@H](O)CN1c1nc(-c2ccc3c(c2)COC[C@]32CCC(=O)N2)c2c(n1)C(F)(F)CC2` (single isomer, unassigned) [Example 641], the IC50 against human KHK-C worked out at 0.9 nM; against human KHK-A, 14.5 nM. Moreover, in experiment [1] (read-out: NRK CTG EC50, NRK-52E cells, Cell-Titer Glo, 25 mM fructose), the EC50 was 20.3 nM.

`C[C@H]1CCN1c1nc2c(c(-c3cn4cnc(C(N)=O)c4s3)n1)CCC2` [Example 119, (S)-2-(2-(2-methylazetidin-1-yl)-6,7-dihydro-5H-cyclopenta[d]pyrimidin-4-yl)imidazo[5,1-b]thiazole-7-carboxamide]: the IC50 against human KHK-C (ADP-Glo) was 2.4 nM; against human KHK-A (ADP-Glo), 13.4 nM. Besides, a half-maximal effect in experiment [1] (EC50) was put at 6.6 nM.

As to `C[C@H]1CCN1c1nc2c(c(-c3ccc4c(c3)CCO4)n1)CCC2` [Example 274, (S)-4-(2,3-dihydrobenzofuran-5-yl)-2-(2-methylazetidin-1-yl)-6,7-dihydro-5H-cyclopenta[d]pyrimidine], the IC50 amounted to 142 nM against human KHK-C (ADP-Glo) and 204 nM at human KHK-A (ADP-Glo). Also, in experiment [1], the EC50 stood at 205 nM.

As to `COC(=O)[C@H]1C[C@@]12C(=O)Nc1ccc(-c3nc(N4CC[C@@H]4C)nc4c3CCC4)cc12` (racemic) [Example 407, rac-methyl (1R,2S)-5′-(2-((S)-2-methylazetidin-1-yl)-6,7-dihydro-5H-cyclopenta[d]pyrimidin-4-yl)-2′-oxospiro[cyclopropane-1,3′-indoline]-2-carboxylate], the IC50 against human KHK-C is 229 nM; against human KHK-A it was 235 nM. In experiment [1], the EC50 is 506 nM.

`C[C@H]1CCN1c1nc2c(c(-c3cccc(C(=O)NCCS(N)(=O)=O)c3)n1)CCC2` [Example 219, 3-[2-[(2S)-2-methylazetidin-1-yl]-6,7-dihydro-5H-cyclopenta[d]pyrimidin-4-yl]-N-(2-sulfamoylethyl)benzamide]: the IC50 at human KHK-C (ADP-Glo) amounted to 13.1 nM; against human KHK-A (ADP-Glo) it was 17.2 nM. In addition, a half-maximal effect in experiment [1] (EC50) was put at 283 nM.

For the compound `C[C@H]1[C@H](O)CN1c1nc(-c2cccc(S(N)(=O)=O)c2)c2c(cnn2C)n1` [Example 38], the IC50 on human KHK-C (ADP-Glo) was 836 nM; against human KHK-A (ADP-Glo), 812 nM. This compound also returned an EC50 in experiment [1] of 12200 nM.

For the compound `C[C@H]1CCN1c1nc2c(c(-c3ccc4c(c3)C(=O)NC4)n1)CCC2` [Example 207], the IC50 at human KHK-C (ADP-Glo) was determined as 28.2 nM; at human KHK-A (ADP-Glo), 23.2 nM. The compound also showed an EC50 in experiment [1] of 55.8 nM.

In the case of `C[C@H]1CCN1c1nc2c(c(-c3ccc4c(c3)C[C@@H]3[C@H](C(N)=O)[C@H]43)n1)CCC2` (relative stereo) [Example 138, (1S,1aR*,6aS*)-4-(2-((S)-2-methylazetidin-1-yl)-6,7-dihydro-5H-cyclopenta[d]pyrimidin-4-yl)-1,1a,6,6a-tetrahydrocyclopropa[a]indene-1-carboxamide], the results for the IC50 against human KHK-C (ADP-Glo) and on human KHK-A (ADP-Glo) were 220 nM and 294 nM, respectively. This compound came in with an EC50 in experiment [1] of 1800 nM.

In the case of `C[C@H]1[C@H](O)CN1c1nc2c(c(-c3ccc(C(N)=O)s3)n1)CCC2` [Example 57, 5-(2-((2S,3R)-3-hydroxy-2-methylazetidin-1-yl)-6,7-dihydro-5H-cyclopenta[d]pyrimidin-4-yl)thiophene-2-carboxamide], the values for the IC50 against human KHK-C (ADP-Glo) and against human KHK-A (ADP-Glo) were 17.8 nM and 12.9 nM, respectively. Besides, in experiment [1], the EC50 worked out at 65.8 nM.

Take `C[C@H]1CCN1c1nc2c(c(-c3ccc4c(c3)C(=O)NCCO4)n1)CCC2` [Example 150, (S)-7-(2-(2-methylazetidin-1-yl)-6,7-dihydro-5H-cyclopenta[d]pyrimidin-4-yl)-3,4-dihydrobenzo[f][1,4]oxazepin-5(2H)-one]: the IC50 on human KHK-C (ADP-Glo) was determined as 33.1 nM; at human KHK-A (ADP-Glo), 32.2 nM. Moreover, the midpoint of the response in experiment [1], the EC50, lay at 73.2 nM.

For `COc1cc(-c2nc(N3CC[C@@H]3C)nc3c2CCC3)ccc1C(N)=O` [Example 309, (S)-2-methoxy-4-(2-(2-methylazetidin-1-yl)-6,7-dihydro-5H-cyclopenta[d]pyrimidin-4-yl)benzamide], the values for the IC50 on human KHK-C (ADP-Glo) and against human KHK-A (ADP-Glo) were 17.4 nM and 19 nM, respectively. It took 15.8 nM to reach a half-maximal effect in experiment [1] (EC50).

With `NC1(c2ccc(-c3nc(N4CCC4C(F)F)nc4c3CCC4(F)F)cc2)CS(=O)(=O)C1` (stereo not drawn) [Example 799, 3-amino-3-(4-(2-(2-(difluoromethyl)azetidin-1-yl)-7,7-difluoro-6,7-dihydro-5H-cyclopenta[d]pyrimidin-4-yl)phenyl)thietane 1,1-dioxide], the figures for the IC50 at human KHK-C (ADP-Glo) and against human KHK-A (ADP-Glo) were 1.9 nM and 16.2 nM, respectively. In experiment [1], this compound returned an EC50 of 21.5 nM.

Take `CC(=O)Nc1cccc(-c2nc(N3C[C@@H](O)[C@@H]3C)nc3c2CCC3)c1` [Example 41]: the IC50 on human KHK-C (ADP-Glo) was determined as 125 nM; on human KHK-A (ADP-Glo), 102 nM. This compound also returned an EC50 in experiment [1] of 602 nM.

For the compound `C[C@H]1CCN1c1nc2c(c(-c3ccc4c(c3)S(=O)(=O)NC4)n1)CCC2` [Example 72, (S)-6-(2-(2-methylazetidin-1-yl)-6,7-dihydro-5H-cyclopenta[d]pyrimidin-4-yl)-2,3-dihydrobenzo[d]isothiazole 1,1-dioxide], the IC50 is 15 nM against human KHK-C (ADP-Glo) and 18 nM against human KHK-A (ADP-Glo). Also, a half-maximal effect in experiment [1] (EC50) was put at 29.8 nM.

Take `NC(=O)c1ccc(-c2nc(N3CCC34CCOC4)nc3c2CCC3)cc1` (stereo not drawn) [Example 434, 4-[2-(7-oxa-1-azaspiro[3.4]octan-1-yl)-6,7-dihydro-5H-cyclopenta[d]pyrimidin-4-yl]benzamide]: the IC50 was 1620 nM on human KHK-C and 2930 nM on human KHK-A. The EC50 in experiment [1] came to 3310 nM.

For the compound `C[C@H]1CCN1c1nc2c(c(-c3ccc4[nH]nc(CC(=O)O)c4c3)n1)CCC2` [Example 70, (S)-2-(5-(2-(2-methylazetidin-1-yl)-6,7-dihydro-5H-cyclopenta[d]pyrimidin-4-yl)-1H-indazol-3-yl)acetic acid], the IC50 against human KHK-C (ADP-Glo) was 51.7 nM; against human KHK-A (ADP-Glo), 29.4 nM. This compound also had an EC50 in experiment [1] of more than 5000 nM.

Consider `C[C@H]1CCN1c1nc2c(c(-c3ccnc(OC(F)F)c3)n1)CCC2` [Example 453, 4-[2-(difluoromethoxy)-4-pyridyl]-2-[(2S)-2-methylazetidin-1-yl]-6,7-dihydro-5H-cyclopenta[d]pyrimidine], for which the IC50 worked out at 776 nM at human KHK-C and 1010 nM at human KHK-A. This compound also yielded an EC50 in experiment [1] of 1040 nM.

As to `C[C@H]1CN(c2nc3c(c(-c4ccc(C(N)=O)cc4)n2)CCC3)[C@H]1C` [Example 107, 4-(2-((2S,3S)-2,3-dimethylazetidin-1-yl)-6,7-dihydro-5H-cyclopenta[d]pyrimidin-4-yl)benzamide], the IC50 against human KHK-C (ADP-Glo) was determined as 1060 nM; against human KHK-A (ADP-Glo), 1550 nM. Also, the midpoint of the response in experiment [1], the EC50, lay at 2920 nM.

As to `C[C@H]1CCN1c1nc2c(c(-c3ccc4c(c3)[C@]3(C[C@@H]3C(N)=O)C(=O)N4)n1)CCC2` (mixture of isomers) [Example 413, rac-(1R,2S)-5′-(2-((S)-2-methylazetidin-1-yl)-6,7-dihydro-5H-cyclopenta[d]pyrimidin-4-yl)-2′-oxospiro[cyclopropane-1,3′-indoline]-2-carboxamide], the values for the IC50 against human KHK-C and against human KHK-A were 74.4 nM and 65.4 nM, respectively. The same compound displayed an EC50 in experiment [1] of 750 nM.

For the compound `C[C@H]1CCN1c1nc2c(c(-c3cccc([C@H]4C[C@@H]4C(N)=O)c3)n1)CCC2` (stereo in doubt) [Example 456, trans-2-[3-[2-[(2S)-2-methylazetidin-1-yl]-6,7-dihydro-5H-cyclopenta[d]pyrimidin-4-yl]phenyl]cyclopropanecarboxamide], the IC50 at human KHK-C was 21.8 nM; on human KHK-A it was 44.8 nM. The EC50 in experiment [1] came out at 51.8 nM.

Regarding `C[C@H]1CCN1c1nc2c(c(-c3cccc(C4(C(N)=O)CC4)c3)n1)CCC2` [Example 254, 1-[3-[2-[(2S)-2-methylazetidin-1-yl]-6,7-dihydro-5H-cyclopenta[d]pyrimidin-4-yl]phenyl]cyclopropanecarboxamide], the IC50 amounted to 517 nM at human KHK-C (ADP-Glo) and 600 nM on human KHK-A (ADP-Glo). This compound also had an EC50 in experiment [1] of 607 nM.
